Laboratory results reported in ChEMBL document CHEMBL3507680, “University of Dundee, Gates Library screen for HepG2 cell viability”.

Experiment: Human HepG2 cell viability assay in 384 well format
Format: toxicity, cell-based
Parameters: dose 125 nL, time 70.5 hour; cytotoxicity at 70.5 h: concentration not given beside the values
Settings: HepG2 cells, read-out: Inhibition

| SMILES | cytotoxicity at 70.5 h [%] |
| --- | --- |
| CN(Cc1c(F)cccc1Cl)C(=O)c1cnn(CCN2CCOCC2)c1 | -12.6 |
| COCc1nc(C(=O)NS(=O)(=O)c2ccc(F)c(F)c2)cs1 | -6.1 |
| Cc1ccc(CN2CCOCC2)cc1NCc1ccsc1 | -13.9 |
| Cc1nc(-c2ccc(S(=O)(=O)N3CCC=C(F)C3)cc2)co1 | -9.72 |
| COC(=O)CN(C(=O)c1ccc(Cl)cn1)c1cccc(F)c1 | -0.717 |
| CC(C)(C)OC(=O)NCCC(=O)N(CCC#N)Cc1ccco1 | -0.853 |
| COC(=O)CN(C(=O)c1ccc(Cl)o1)c1cccc(F)c1 | -11.3 |
| CCc1noc(CN(C)Cc2cc(Br)ccc2OC)n1 | -5.46 |
| COCCC(=O)N(CCC#N)c1ccc2c(c1)OCCO2 | -0.557 |
| NC(=O)c1cnn2c1NCC(CNCC1(c3ccccc3)CCC1)C2 (stereo unspecified) | 10.4 |
| N#Cc1ccc(CN2CCOCC2)cc1 | 2.27 |
| CC(C)C(C)N(C)C(=O)COc1ccccc1C#N (stereo unspecified) | 1.38 |
| CC(Oc1cc(Cl)cc(Cl)c1)C(=O)NCCC(=O)N(C)C (stereo unspecified) | -6.44 |
| CC(CNC(=O)OC(C)(C)C)N(C)C(=O)COc1ccccc1C#N (stereo unspecified) | -12.1 |
| Cc1ncc2c(n1)CN(c1ncnc3[nH]ccc13)CC2 | 1.91 |
| Cc1ccc(N(CCC#N)C(=O)CCc2cccnc2)cc1C | -5.18 |
| Cc1nc(CCCNC(=O)Nc2cc(F)cc(F)c2)n[nH]1 | -11.9 |
| Cc1nc(C)c(S(=O)(=O)NC(=O)c2cccs2)s1 | -4.64 |
| Cc1noc(C)c1CNC(=O)Nc1ccc(N2CCSCC2)cc1 | -9.93 |
| CC(Oc1cc(Cl)cc(Cl)c1)C(=O)NCCOCC(N)=O (stereo unspecified) | 18 |
| CC(c1ccco1)N(C(=O)Cn1nc2n(c1=O)CCCCC2)C1CC1 (stereo unspecified) | 18 |
| Cc1ocnc1CNC(=O)Nc1ccc(N2CCOC(C)C2)cc1 (stereo unspecified) | -17.7 |
| CC(C)CC(CO)NS(=O)(=O)Cc1ccon1 (stereo unspecified) | -6.44 |
| Cc1nc(CCCNC(=O)c2cc(F)ccc2O)n[nH]1 | -9.81 |
| CCc1ncnc(N2CCOCC2C(N)=O)c1F (stereo unspecified) | -5.74 |

| SMILES | cytotoxicity at 70.5 h [%] |
| --- | --- |
| CC(c1ccncc1)N(C)C(=O)NCCOc1ccc(C#N)cc1 (stereo unspecified) | 16.9 |
| Cc1cnc(C(=O)N2CCOCC2C)cn1 (stereo unspecified) | -16.2 |
| N#Cc1ccc(CN2CCC(CN3CCOCC3)C2)cc1 (stereo unspecified) | -5.35 |
| CC(c1ccco1)N(C)C(=O)NCCOc1ccc(C#N)cc1 (stereo unspecified) | -8.15 |
| COc1c(C(=O)NC(C)CC(=O)c2cccs2)c(C)nn1C (stereo unspecified) | -0.066 |
| Cc1cnc(C(=O)N2CCOCC2c2ccccc2)cn1 (stereo unspecified) | -10.2 |
| N#CC1(NC(=O)c2c(F)ccc(OC(F)F)c2F)CCOCC1 | -9.56 |
| CCC(C)NC(=O)Nc1cccc(OC)c1 (stereo unspecified) | -5.26 |
| Cc1csc(CCNC(=O)N2CCC(C(N)=O)CC2)n1 | -16.7 |
| O=C(CCc1nc(-c2ccsc2)no1)NCC1CCN(C2CC2)C1 (stereo unspecified) | 7.83 |
| CN(C)C(=O)Cn1cnc2c(Br)cccc2c1=O | -10.4 |
| Cc1nnc(CN(Cc2ccco2)Cc2cccc3c2OCO3)n1C | -6.18 |
| CN(CCC#N)C(=O)Cn1cnc2c(Br)cccc2c1=O | -1.58 |
| COc1ccc(-c2cnc(CN(CC(N)=O)C3CCCC3)o2)cc1 | -11.2 |
| NC(=O)CN(Cc1ncc(-c2ccc(Cl)cc2)o1)C1CCCC1 | -7.75 |
| Nc1nccnc1C(=O)NC1CCCN(Cc2c(F)cccc2F)C1 (stereo unspecified) | -16.3 |
| CCOc1ccccc1C(=O)NCc1nncn1C1CC1 | 3.5 |
| CCNC(=O)C1CCN(Cc2ccccc2OCC(F)(F)F)CC1 | -4.11 |
| COc1ccc(C)nc1NC(=O)Cc1c(C)nn(C)c1C | -0.279 |
| NC(=O)NC1CCN(Cc2ccccc2OCC(F)(F)F)CC1 | -4.28 |
| COc1ccc(C)c(NC(=O)NCc2ncnn2C)c1 | 3.43 |
| O=C(NCc1nncn1C1CC1)c1cccnc1Oc1ccccc1 | -0.0708 |
| N#CC1(NC(=O)c2ccc(F)cc2OC(F)F)CCOCC1 | -10.6 |
| COc1ccc(Br)c(NC(=O)NCc2ncnn2C)c1 | -9.33 |
| COc1ncc(NCc2ccsc2)cc1C(N)=O | 3.63 |

| SMILES | cytotoxicity at 70.5 h [%] |
| --- | --- |
| COc1ncc(NCc2cccc(C#N)c2)cc1C(N)=O | -1.66 |
| O=C(NCc1nncn1C1CC1)c1ccccc1OCC1CC1 | -5.93 |
| NCC(CO)Cc1ccc(C(F)(F)F)cc1 (stereo unspecified) | 4.66 |
| COC(=O)c1ccc(N(C(=O)c2cc(Cl)ccn2)C(C)C)c(C)c1 | -2.71 |
| Cc1cccc(NCCOc2cccc(C#N)c2)c1C(N)=O | 16.4 |
| CC(CO)NC(=O)Nc1ccc(COC2CCCC2)cc1 (stereo unspecified) | -2.03 |
| Cc1nn(C)c(C)c1OCC(=O)NCC(O)Cc1ccccc1 (stereo unspecified) | 1.56 |
| Cc1nn(C)c(C)c1OCC(=O)NCC(O)c1ccsc1 (stereo unspecified) | 0.375 |
| Cc1nn(C)c(C)c1OCC(=O)NCc1cccc(CO)c1 | 2.69 |
| O=C(CCCNCc1ccc(Cl)c2cccnc12)NC1CC1 | -1.79 |
| CC(C)N(CCSc1ncnc2[nH]ncc12)C(C)C | -1.52 |
| Cc1nn(C)c(C)c1OCC(=O)NCC(O)c1ccco1 (stereo unspecified) | 16 |
| Cc1ccc(N2CCCC(NCCS(C)(=O)=O)C2)nn1 (stereo unspecified) | -1.77 |
| CC(C)=CCNC1CCCN(c2ccc(C)nn2)C1 (stereo unspecified) | -1.28 |
| N#Cc1cc(CSCCN2CCOCC2)ccc1F | -13.8 |
| COCCn1cc(C(=O)N2CCCC2c2noc(C)n2)ccc1=O (stereo unspecified) | 40.8 |
| Cc1nc(C)n(CC2CCCCN2CCCS(C)(=O)=O)n1 (stereo unspecified) | 9.04 |
| Cc1nc(C)n(CC2CCCCN2CCCO)n1 (stereo unspecified) | 9.77 |
| COCCn1cc(C(=O)N2CCCC2c2ccc(F)cc2)ccc1=O (stereo unspecified) | -1.67 |
| COCCn1cc(C(=O)N2CCCC2c2ccccc2C)ccc1=O (stereo unspecified) | -7.56 |
| c1ccc(-c2nc(CN3CCOC(Cn4cccn4)C3)cs2)cc1 (stereo unspecified) | -2.87 |
| Cc1cc(Br)oc1C(=O)N1CCN(CC(N)=O)CC1 | -1.55 |
| COc1cc(C)nc(N2CCN(C(=O)CCc3ccco3)CC2)n1 | -2.64 |
| NC(=O)CCn1ccc(NC(=O)c2ccc(OCC3CC3)cc2)n1 | -3.84 |
| Cc1ccc(C(=O)Nc2ccn(CCC(N)=O)n2)cc1 | -3.18 |

| SMILES | cytotoxicity at 70.5 h [%] |
| --- | --- |
| CN1CCC(N(Cc2ccccc2F)C(=O)NCc2ccncc2)CC1 | 30.5 |
| CCC(=O)N1CCN(C(=O)Nc2cccc(N3CCOCC3)c2)CC1 | 2.85 |
| CCOC(C)c1nc(CN2CCN(Cc3cccnc3)CC2)cs1 (stereo unspecified) | -4.18 |
| O=C(NCc1ccccc1CN1CCC(O)CC1)Nc1ccccn1 | -3.22 |
| c1cc(C2CCN(Cc3nc(-c4ccsc4)no3)CC2)[nH]n1 | -3.49 |
| O=C(CN1CCCCC1Cn1cccn1)NC1CCOCC1 (stereo unspecified) | -6.42 |
| Cn1cc(-c2nc(CN3CCOC(Cn4cccn4)C3)cs2)cn1 (stereo unspecified) | -5.18 |
| CC(C)N(C)S(=O)(=O)N1CCCC1CC(=O)c1cccs1 (stereo unspecified) | -0.315 |
| CCOc1ccccc1NC(C)C(=O)N(C)Cc1cccc(F)c1 (stereo unspecified) | 6.19 |
| CCC(CNC(=O)c1ccccn1)N1CCc2ccccc2C1 (stereo unspecified) | 10.5 |
| O=C(NCC1(N2CCOCC2)CCSC1)Nc1ccncc1 (stereo unspecified) | -6.91 |
| CN(Cc1ccco1)C(=O)NCc1nnc2n1CCC2 | -8.06 |
| Cc1cc(C(=O)CN2C(=O)c3ccccc3CS2(=O)=O)c(C)[nH]1 | -6.26 |
| Cc1ccc(NC(C)C(=O)N(C)Cc2cccc(F)c2)cc1C(N)=O (stereo unspecified) | -4.3 |
| CCOCCC(=O)NC1(c2cccc(Br)c2)CC1 | -3.83 |
| CN(Cc1ccco1)Cc1ccccc1CNC(=O)c1csnn1 | -1.62 |
| CN(Cc1ccco1)Cc1ccccc1CNC(=O)c1cnccn1 | -6.66 |
| N#Cc1cc(NC(=O)c2ccncc2)ccc1N1CCC(O)CC1 | -3.68 |
| C=C(C)CN1CCC(NC(=O)NCCc2ccccc2OC)CC1 | -7.86 |
| CC(=O)c1cccc(OCCCC(=O)N(C)CCC(F)(F)F)c1 | -4.24 |
| CN(Cc1ccco1)Cc1ccccc1CNC(=O)c1c[nH]nn1 | -1.03 |
| COc1ccc(F)cc1C(C)NC(=O)Nc1nncs1 (stereo unspecified) | 4.1 |
| COCc1ccccc1NC(=O)NC(C)c1ccc(C)o1 (stereo unspecified) | -3.14 |
| CS(=O)(=O)NCCNC(=O)c1cnc(-c2ccccc2)nc1 | -4.82 |
| N#Cc1ccc(CNC(=O)NC2CCN(c3ncccn3)CC2)cc1 | -7.8 |

| SMILES | cytotoxicity at 70.5 h [%] |
| --- | --- |
| Cc1cc(C(=O)Nc2cccn(Cc3ccccc3)c2=O)no1 | 1.5 |
| O=C(NCCC1CCN(CC(F)(F)F)CC1)C1CCCOC1 (stereo unspecified) | 3.94 |
| CN(CCc1nccs1)C(=O)CC1(O)CCCCC1 | -5.26 |
| N#CCCN(Cc1ccccn1)Cn1cc(Cl)cn1 | 29.9 |
| CCSCCC(C)N(C)C(=O)c1ccc2nncn2c1 (stereo unspecified) | -4.21 |
| Cn1cc(S(=O)(=O)NC(=O)C2(c3cccc(Cl)c3)CC2)cn1 | -10.1 |
| CCN1CCC(CNC(=O)Nc2cnn(CC(N)=O)c2)C1 (stereo unspecified) | -8.69 |
| NC(=O)Cn1cc(NC(=O)NCC2CCN(c3ccccc3)C2)cn1 (stereo unspecified) | -8.01 |
| Cc1nn(CCC#N)c(C)c1CCC(=O)N(C(C)C)C1CC1 | -10.9 |
| CC(C)C(=O)Nc1ccc(Sc2nncn2C)c(Cl)c1 | -16 |
| O=C(O)c1ccc(OC2CCOCC2)cc1 | -3.72 |
| CCOc1cc(C(=O)N2CC=C(c3ccc(O)cc3)CC2)ccn1 | -14.3 |
| Cc1nc(C2CCCN(c3ncc(Br)cn3)C2)no1 (stereo unspecified) | -13.9 |
| Cc1ccc(F)c(OC2CCCN(c3cnn(C)c3)C2=O)c1 (stereo unspecified) | -3.77 |
| Cn1cc(N2CCCC(Oc3ccc(F)cc3Cl)C2=O)cn1 (stereo unspecified) | -4.99 |
| CCOc1cccnc1C(=O)N1CC=C(c2ccc(O)cc2)CC1 | -7.65 |
| Cc1noc(-c2ccnc(N3CCC(N4CCCC4)CC3)c2)n1 | -8.66 |
| Cc1ccc(CC(=O)Nc2ccc(CS(C)(=O)=O)c(F)c2)cc1 | -2.59 |
| CN1CC(Nc2nc3c(cnn3-c3ccccc3)c(=O)[nH]2)CCC1=O (stereo unspecified) | -10.2 |
| CCCOC1CCCN(C(=O)c2[nH]nc(C)c2Br)C1 (stereo unspecified) | -8.95 |
| CSCC(C)(O)CNc1cccc(F)c1C(C)=O (stereo unspecified) | -5.74 |
